Test results from the METLIN SMRT retention time set (Domingo-Almenara et al. 2019).

Test: gradient 5% acetonitrile 3 min, to 50% in 2 min, to 85% in 15 min, held 3 min, 100 µL/min
Settings: column: Zorbax Extend-C18 2.1 x 50 mm; eluents: water / acetonitrile, 0.1% formic acid
In short: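 Mixtures of ~100 pure standards were chromatographed on a Zorbax Extend-C18 column (2.1 × 50 mm, 1.8 μm) at 100 μL/min using water and acetonitrile, each with 0.1% formic acid. Detection used a quadrupole time-of-flight mass spectrometer in positive and negative ionization mode, and data collection spanned 3 months. Retention time was obtained from adduct peaks picked computationally and each checked manually.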

RP-LC retention time [s]	SMILES
914	Cc1cc(Cl)ccc1NC(=O)C1CCCN1S(=O)(=O)c1cc2c(cc1C)NC(=O)C(C)O2 (configuration not stated)
838	CCc1ccc(NC(=O)N2CCC(n3cnc4ccc(C)cc4c3=O)CC2)cc1
745	O=c1cc(CSc2nnc(-c3ccccc3F)o2)nc2sccn12
846	CC(C)(C)c1csc(-c2csc(S(=O)(=O)NCCN3CCc4ccccc4C3)c2)n1
960	Cc1cccc(OCC(=O)N(Cc2ccc(Br)o2)C2CCS(=O)(=O)C2)c1C (configuration not stated)
637	C=CCN1CCN(c2nc3cc(C(=O)OC)ccc3c(=O)n2-c2ccccc2)CC1
702	S=C1NCCN1c1ccccc1Cl
653	O=C(Cn1ccnc1-c1ccnc(N2CCSCC2)c1)NCc1ccc(F)cc1
706	CCCS(=O)(=O)c1ccc(NCc2ccc(OC)c(OC)c2)nn1
722	CN1C(=O)CCC2(CNC(=O)Nc3ccc4c(c3)OCCO4)CCCC=C12 (configuration not stated)
823	O=C(NC1CCN(c2ccc(F)cc2)C1=O)c1ccccc1C(F)(F)F (configuration not stated)
654	O=S(=O)(Cc1ccc(Cl)cc1)c1ccc(N2CCN(c3ccccn3)CC2)nn1
724	O=C1CCCc2cc(S(=O)(=O)N3CCC(C(=O)NCc4ccc(F)cc4)CC3)ccc2N1
1030	Fc1ccc(-c2noc(Cc3nnc(-c4cc(F)cc(F)c4)o3)n2)cc1
646	CCOC(=O)C1CCN(C(=O)C2CCCN(c3nc4ccccc4[nH]3)C2)CC1 (configuration not stated)
821	CC(C)CNc1nc(-c2ccc([N+](=O)[O-])cc2)nc2ccccc12
778	COc1ccc(OC)c(NC(=O)c2ccc(S(=O)(=O)NC3CC3)cc2)c1
771	COc1ccc(OCC(=O)N2CCC(C(=O)NCc3csc(-c4cccs4)n3)CC2)cc1
748	COC(=O)c1ccccc1S(=O)(=O)Nc1ccc2c(c1)CCC(=O)N2C
887	O=C(CSc1nnc(-c2ccco2)o1)N1CCCc2ccccc21
901	COc1ccc(-c2nc(-c3cn(Cc4cccc(F)c4)nn3)no2)cc1OC
834	CCOC(=O)c1ccc(Nc2nnc(CSc3nc(C)cc(C)n3)s2)cc1
662	CCCNC(=O)C1CCCN(c2ccc(SCC(=O)Nc3ccc(F)c(F)c3)nn2)C1 (configuration not stated)

RP-LC retention time [s]	SMILES
708	O=C(Nc1cccc(Br)c1)N1C[C@H]2C[C@H](C1)[C@H]1CCCC(=O)N1C2
661	Cc1ccc(CNC(=O)Nc2ccc3nnc(C)n3c2)cc1
1390	CC(=O)N1c2nc(-c3ccccc3)nn2C2(CCCCC2)[C@@H]2CCCC[C@@H]21
1230	Cc1ccccc1-c1noc(C2CCCN2S(=O)(=O)c2ccc(Br)s2)n1 (configuration not stated)
558	O=C(CCN1C(=O)C2CC=CCC2C1=O)N1CCN(c2ccccn2)CC1 (configuration not stated)
681	O=C(CCc1cn(-c2ccccc2)nc1-c1ccc2c(c1)OCO2)NCCCN1CCOCC1
672	O=C(NC1CC1)C1CCN(c2nc3ccc(-c4cncnc4)nc3s2)CC1
1080	CCOc1ccc(N2C(=O)C3N=NN(Cc4nc(-c5cccc(C(F)(F)F)c5)no4)C3C2=O)cc1 (configuration not stated)
590	Cc1ccc2nc(SCC(=O)N3CCCCC3)[nH]c2c1
785	Cc1ccc2c(NC(=O)C(c3ccccc3)c3ccccc3)noc2n1
962	Cc1nn(C(C)C(=O)NC2CCC(C)CC2)c(=O)c2nn(-c3ccccc3)c(C)c12 (configuration not stated)
639	O=C(Nc1ccccc1)C1(CCO)CC12CCOCC2 (configuration not stated)
734	O=C1NCCCCCN(C(=O)Nc2ccccc2F)[C@H]2CCC[C@@H]12
779	COc1cccc(C(=O)NCc2nn(C)c3ccccc23)c1
1140	Cc1ccc(C(=O)Nc2cnc(-c3cccc(Cl)c3)nc2)s1
982	CCCn1ccc2sc(C)c(C(=O)NCc3ccccc3OCC)c2c1=O
906	COc1ccc(OC)c(NC(=O)N2CCCC2c2nc(-c3ccccc3OC)no2)c1 (configuration not stated)
712	CCCCN(C)C(=O)Cn1c(C2CC(=O)N(c3ccc(OC)cc3)C2)nc2ccccc21 (configuration not stated)
830	Cc1noc(-c2cccc(OC3CN(C(=O)NCc4ccccc4)C3)c2)n1
859	CCOc1ccc(NC(=O)N2CCCC(C)(C(=O)NCc3ccccc3)C2)cc1 (configuration not stated)
608	COCC1(F)CCN(Cc2c(-c3ccc(C)cc3)nc3c(C)cccn23)CC1
789	CCc1nnc(-c2cc(C)n(CC(=O)Nc3cc(C)ccc3C)c2C)o1
742	Cn1ncc2c(N3CCCC3)nc(C(=O)NCc3cccs3)nc21

RP-LC retention time [s]	SMILES
878	O=C1CC[C@]2(C(=O)N3CCCCC3)CCCC[C@H]2N1CCc1ccccc1
612	COCC1(O)CCOC2(CCN(Cc3cccc(Cl)c3)CC2)C1 (configuration not stated)
1070	CCCc1noc(-c2ccc(-n3cnc(C(=O)NC4CCCCCC4)c3)nc2)n1
816	CCC(C)NC(=O)N1CCCN(C2=NS(=O)(=O)C(c3ccc(C)cc3)=C2C)CC1 (configuration not stated)
1050	CCCCN1C(=O)C(C)(C(=O)Nc2ccc(F)cc2F)Oc2cccnc21 (configuration not stated)
1200	CCN(C(=O)c1ccc(OC)c(OC)c1)c1nc(-c2ccc(C)cc2)cs1
652	O=C1C(=O)N(Cc2ccc(C(=O)N3CCOCC3)cc2)CCN1Cc1ccc(F)cc1
735	CC(C)(C)NC(=O)N1CCC(CNC(=O)CSCc2ccccc2)CC1
621	CC(=O)OC1CCN(C(=O)NC(C)C)CC1
789	Cc1ncoc1C(=O)N1CCC(F)(F)C(COCC2CC2)C1 (configuration not stated)
938	CCOc1ccc(-c2nc(NC(=O)Cc3csc(C)n3)sc2C)cc1
1010	Cc1noc(C)c1S(=O)(=O)N1CCC(c2noc(-c3ccccc3)n2)C1 (configuration not stated)
866	O=C(CCCN1C(=O)c2cccc3cccc(c23)C1=O)N1CCN(c2ccccc2)CC1
918	CCOc1ccccc1-c1nc(Cc2noc(-c3ccncc3)n2)c(C)o1
949	O=S(=O)(NCC(O)C1CCCCC1)c1ccc(OC(F)(F)F)cc1 (configuration not stated)
822	Cc1ccc(NC(=O)N2CCC(N3CCN(Cc4ccccc4)C3=O)CC2)cc1
998	Cc1sc(-c2nnc(C3CC3)o2)cc1NC(=O)C(C)c1ccccc1 (configuration not stated)
1040	CCOc1ccc(C(=O)Nc2cc(Cl)ccc2C)nn1
822	Cc1ccc(-c2nnc(Cc3nc(-c4ccccn4)no3)o2)cc1F
791	CCOc1ccc(NS(=O)(=O)c2cc(-c3c(CC)noc3NC(C)=O)ccc2OC)cc1
1180	COc1ccc(CNC(=O)N2c3ccccc3CC2c2nc(C3CC3)no2)cc1 (configuration not stated)
